Experiment [1] relates to F. tularensis. The experiment is described as follows: microbe, parasite or virus in culture. The experiment is classed as cell-based. As to conditions: Francisella tularensis.
Experiment [2] deals with E. coli TolC-. In words: microbe, parasite or virus in culture. It is filed as cell-based. To be noted: Escherichia coli.
Experiment [3] relates to S. aureus. As to conditions: cited from earlier work.
The test system of experiment [4] is E. coli. As to conditions: cited from earlier work.
Experiment [5] relates to B. anthracis. As to conditions: cited from earlier work.

The values that follow come from article PMC4348352 (Bioorganic & medicinal chemistry letters, 2015).

Each structure is given as a SMILES string. Converted amounts (≈) assume the structure as drawn.

In turn, `CC(c1ccc(Cl)c(Cl)c1)n1cnc2cc3c(cc21)CCC3` (stereo not drawn) [Compound 3] registered an MIC in experiment [1] of 3.1 to 6.3 µg/mL (≈ 9.36 to 19 µM).

Take `CC(c1ccc(Cl)c(Cl)c1)n1cnc2cc3c(cc21)CCCC3` (stereo not drawn) [Compound 4]: in experiment [1], the MIC is 3.1 to 6.3 µg/mL (≈ 8.98 to 18.2 µM). This compound also yielded an MBC in experiment [2] greater than 25 µg/mL.

Take `Cc1cc2ncn(Cc3ccc(Cl)c(Cl)c3)c2cc1C` [Compound 1]: the figures for the MIC in experiment [3], in experiment [4] and in experiment [5] were 25 µg/mL (≈ 81.9 µM), greater than 200 µg/mL and 9.4 µg/mL (≈ 30.8 µM), respectively.
